Nine compounds from US8911952B2, “Method for integrin ligand discovery” (STC. UNM, priority 2010, dated 2014) can be followed below.

Assay [1] has as its target T1, VLA-4 (Homo sapiens, UniProt P05556+P13612). As to the kind of experiment: Real-time binding of HUTS-21 antibodies to U937 cells. The format is cell-based. Details: host or cells: U937 (human histiocytic lymphoma); in part of the real-time experiments U937 stably transfected with a non-desensitizing FPR mutant, where VLA-4 itself is endogenous. Conditions: 1 nM LDV in the absence of the compound. On the procedure:
the Ability of a Flow Cytometer to Discriminate between free and bound fluorescent ligand in a homogeneous assay was used to determine the binding kinetics of mAbs in real-time (15; 26). Cells (10^6 cells/ml) were removed from ice and warmed in HEPES buffer containing 0.1% HSA for 10 min at 37° C. […] Screening hits at saturating concentration (10-30 μM final) or DMSO (vehicle) were added at point 0.

Assay [2] concerns the target T1, VLA-4. As to the kind of experiment: Detection of VLA-4 allosteric antagonists: HUTS-21 binding inhibition screen of the Prestwick Chemical Library.
Description: 5 μl RPMI was added to columns 2-24. Column 1 was left empty for flow cytometry data binning purposes. Test compounds in DMSO (Prestwick Chemical Library, PCL) were added and mixed (0.1 μl of 1 mM stock solution). […] Compounds were added to 320 wells (columns 3-22). […] Columns 23, 24 were used for the positive control (no test compounds added). Next, 5 μl aliquots of U937 cells were suspended in RPMI 1640 at 3×10^6 cells/ml, loaded in 384 well plates, and mixed (1×10^6 cells/ml final). Cells were incubated for 10 min at RT. This time is sufficient for the binding of a small molecule (˜1 kD) at 10 μM at RT. […] Plates were incubated for 1 hour at 37° C. According to the real-time kinetic studies this time was sufficient to reach equilibrium. Next, wells were sampled using the high throughput flow cytometry platform (HyperCyt) at UNMCMD.
After data acquisition by the flow cytometer (CyAn™ ADP), proprietary software was used to analyze the data files (IDLQuery, at UNMCMD, developed by Bruce Edwards). The data were exported into a Microsoft Excel spreadsheet template, and the value for antibody binding inhibition (%) was calculated for each well as follows: % Inhibition=100(1−((MCFtest−MCFneg.control)/MCFpos.control−MCFneg.control))), where, MCF is mean channel fluorescence of cells with test compounds, and positive or negative control wells.
Assay [3] addresses T1, VLA-4. As to the kind of experiment: HUTS-21 antibody binding (ligand induced epitope exposure) on U937 cells. The format is cell-based. Details: host or cells: U937 (human histiocytic lymphoma); in part of the real-time experiments U937 stably transfected with a non-desensitizing FPR mutant, where VLA-4 itself is endogenous. As to the method: U937 cells were suspended in the HEPES buffer (see above) 1×10^6 cells/ml, 100 μl aliquots (10^5 cells) were incubated with different concentrations of unlabeled compounds for 10 min. Next, 20 μl of PE-labeled HUTS-21 antibodies was added and cells were incubated for additional […] at room temperature. Next, cells were washed with 1 ml of HEPES buffer, resuspended in 300-500 μl of buffer and analyzed by flow cytometry (FL2 channel, BD FACScan). The data were plotted as mean channel fluorescence vs. the concentration of the compound. The data were fitted to a sigmoidal dose-response equation. To determine the level of nonspecific binding, cells were stained in parallel with the isotype control antibodies.

The next assay has as its target T2, LFA-1 (Homo sapiens, UniProt P05107+P20701).
T2 construct: host or cells: U937 (human histiocytic lymphoma)
As to the kind of experiment: Binding of MEM-148 mAbs to U937 cells (epitope exposure). The class given is cell-based. The text has this:
In order to confirm that similar results can be obtained with other integrins we have constructed a 3D model of αLβ2-integrin (LFA-1, CD11a/CD18). Amino acid residue critical for the binding of MEM-148 mAb to β2-integrin subunit (Pro 374) was highlighted as green space fill (1). This model was compared to the model of β1-integrin subunit, where critical residues (Ser370, Glu371, and Lys417) were highlighted in a similar way (2) (FIG. 8). It is worth noting that critical residues for both mAbs are positioned in a similar way on the inner side of the hybrid domain. Since the outward movement of the hybrid domain, induced by a ligand binding (at least for β1-integrin (2)), can be used to report occupancy of the ligand binding pocket (3), we decided to use MEM-148 mAbs to probe LFA-1 integrin conformation upon ligand binding.
To test this possibility, two αLβ2-integrin ligands were synthesized as described previously. Compound 3 (Genentech) and XVA143 (Roche) are shown to be LFA-1 specific antagonists (4) FIG. 9.

For assay [4], the system named is hematopoietic stem and progenitor cells (HSPCs). As to the kind of experiment: Mobilization of hematopoietic stem and progenitor cells into the peripheral blood. As to conditions: mouse; for CFU/ml in peripheral Blood / WBC count/ml × 10^6: intraperitoneal, one hour prior to blood collection, thioridazine hydrochloride 1.25 mg/kg, AMD3100 5 mg/kg, Mean ± S.E.
The target of assay [5] is VLA-4 (very late antigen 4, CD49d/CD29, alpha4beta1 integrin) (human) (UniProt P13612). Put plainly: flow cytometry on U937 cells, PE-HUTS-21 with rising LDV.

Structures can show the parent of a compound that is named as a salt. Marks after values point to notes of the source that are not given here.

T1 sequence (P13612 34-1032): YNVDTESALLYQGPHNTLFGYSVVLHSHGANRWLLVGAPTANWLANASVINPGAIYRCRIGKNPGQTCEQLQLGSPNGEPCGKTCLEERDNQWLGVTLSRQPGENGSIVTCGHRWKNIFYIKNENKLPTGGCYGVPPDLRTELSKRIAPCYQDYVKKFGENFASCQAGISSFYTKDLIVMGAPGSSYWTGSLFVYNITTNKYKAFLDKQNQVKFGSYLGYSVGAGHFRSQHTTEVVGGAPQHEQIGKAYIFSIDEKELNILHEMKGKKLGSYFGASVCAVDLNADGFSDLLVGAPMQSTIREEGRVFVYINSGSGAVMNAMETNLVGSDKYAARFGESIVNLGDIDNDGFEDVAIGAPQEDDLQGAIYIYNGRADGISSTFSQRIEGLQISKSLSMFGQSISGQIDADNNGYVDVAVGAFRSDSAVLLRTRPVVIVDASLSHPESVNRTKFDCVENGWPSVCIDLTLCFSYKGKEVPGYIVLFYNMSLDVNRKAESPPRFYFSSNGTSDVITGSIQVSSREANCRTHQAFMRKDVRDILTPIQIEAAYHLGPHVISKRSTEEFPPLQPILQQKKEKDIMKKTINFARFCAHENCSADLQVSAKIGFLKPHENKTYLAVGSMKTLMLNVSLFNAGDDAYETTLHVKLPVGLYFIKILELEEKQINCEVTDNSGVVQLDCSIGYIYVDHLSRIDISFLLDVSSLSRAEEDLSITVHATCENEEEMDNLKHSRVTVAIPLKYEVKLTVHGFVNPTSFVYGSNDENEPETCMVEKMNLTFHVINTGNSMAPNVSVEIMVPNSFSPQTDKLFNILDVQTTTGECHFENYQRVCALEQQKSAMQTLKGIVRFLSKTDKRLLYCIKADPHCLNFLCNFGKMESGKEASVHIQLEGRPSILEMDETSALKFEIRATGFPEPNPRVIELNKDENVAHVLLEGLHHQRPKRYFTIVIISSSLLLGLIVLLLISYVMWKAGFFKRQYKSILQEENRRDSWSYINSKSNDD
T1 sequence (P05556 21-798): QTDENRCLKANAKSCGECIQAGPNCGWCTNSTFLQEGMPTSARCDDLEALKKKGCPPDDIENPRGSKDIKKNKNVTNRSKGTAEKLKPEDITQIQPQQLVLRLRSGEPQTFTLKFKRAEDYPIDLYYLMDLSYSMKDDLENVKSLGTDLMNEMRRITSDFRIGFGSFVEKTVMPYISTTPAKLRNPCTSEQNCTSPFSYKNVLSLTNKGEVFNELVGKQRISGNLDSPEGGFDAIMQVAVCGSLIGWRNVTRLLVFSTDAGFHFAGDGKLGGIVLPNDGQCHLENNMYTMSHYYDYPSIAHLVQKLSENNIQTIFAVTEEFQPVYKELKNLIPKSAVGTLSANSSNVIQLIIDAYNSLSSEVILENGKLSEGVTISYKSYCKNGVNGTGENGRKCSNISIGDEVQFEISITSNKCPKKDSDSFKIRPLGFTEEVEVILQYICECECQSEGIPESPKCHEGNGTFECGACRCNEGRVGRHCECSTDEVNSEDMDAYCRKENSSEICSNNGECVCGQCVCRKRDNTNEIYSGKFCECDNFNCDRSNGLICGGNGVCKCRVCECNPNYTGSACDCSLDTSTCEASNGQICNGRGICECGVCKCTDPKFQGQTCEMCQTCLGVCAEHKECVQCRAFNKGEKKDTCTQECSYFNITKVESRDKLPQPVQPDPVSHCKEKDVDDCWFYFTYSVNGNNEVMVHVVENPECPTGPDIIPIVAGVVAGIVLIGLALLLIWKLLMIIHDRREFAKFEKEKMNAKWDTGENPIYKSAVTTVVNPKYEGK
Chain of VLA-4 (very late antigen 4, CD49d/CD29, alpha4beta1 integrin) (human) (P13612 34-1032, chain 1 of 2): as the sequence (P13612 34-1032) above
Chain of VLA-4 (very late antigen 4, CD49d/CD29, alpha4beta1 integrin) (human) (P05556 21-798, chain 2 of 2, further chain): as the sequence (P05556 21-798) above
T2 sequence (P20701 26-1170): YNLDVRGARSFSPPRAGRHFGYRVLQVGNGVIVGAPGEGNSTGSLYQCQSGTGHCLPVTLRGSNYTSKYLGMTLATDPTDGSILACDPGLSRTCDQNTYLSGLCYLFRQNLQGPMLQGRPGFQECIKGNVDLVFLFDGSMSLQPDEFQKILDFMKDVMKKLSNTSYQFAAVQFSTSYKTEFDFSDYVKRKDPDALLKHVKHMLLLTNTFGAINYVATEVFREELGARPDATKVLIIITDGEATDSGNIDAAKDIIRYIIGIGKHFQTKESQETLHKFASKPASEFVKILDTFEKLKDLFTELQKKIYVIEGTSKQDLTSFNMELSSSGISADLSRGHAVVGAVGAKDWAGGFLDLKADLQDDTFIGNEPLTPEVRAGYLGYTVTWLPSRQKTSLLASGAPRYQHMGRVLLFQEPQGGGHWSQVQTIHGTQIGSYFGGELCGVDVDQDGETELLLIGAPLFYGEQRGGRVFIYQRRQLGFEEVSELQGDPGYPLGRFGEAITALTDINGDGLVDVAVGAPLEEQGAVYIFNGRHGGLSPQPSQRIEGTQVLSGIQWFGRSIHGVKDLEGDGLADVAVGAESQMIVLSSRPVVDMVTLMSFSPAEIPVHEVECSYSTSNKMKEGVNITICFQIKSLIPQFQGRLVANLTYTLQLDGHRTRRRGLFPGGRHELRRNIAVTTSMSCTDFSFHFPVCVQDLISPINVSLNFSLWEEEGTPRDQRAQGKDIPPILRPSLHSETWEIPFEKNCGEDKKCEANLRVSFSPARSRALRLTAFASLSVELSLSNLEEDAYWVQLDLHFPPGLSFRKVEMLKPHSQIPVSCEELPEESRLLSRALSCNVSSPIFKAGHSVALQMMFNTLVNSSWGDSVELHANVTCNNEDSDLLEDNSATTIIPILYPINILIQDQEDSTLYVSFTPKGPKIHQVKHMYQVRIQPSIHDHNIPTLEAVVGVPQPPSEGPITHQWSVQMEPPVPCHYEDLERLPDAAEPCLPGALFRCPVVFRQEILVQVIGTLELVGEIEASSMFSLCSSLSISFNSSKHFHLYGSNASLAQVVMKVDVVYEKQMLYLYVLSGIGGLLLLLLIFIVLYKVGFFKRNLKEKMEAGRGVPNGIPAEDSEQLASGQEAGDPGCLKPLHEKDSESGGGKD
T2 sequence (P05107 23-769): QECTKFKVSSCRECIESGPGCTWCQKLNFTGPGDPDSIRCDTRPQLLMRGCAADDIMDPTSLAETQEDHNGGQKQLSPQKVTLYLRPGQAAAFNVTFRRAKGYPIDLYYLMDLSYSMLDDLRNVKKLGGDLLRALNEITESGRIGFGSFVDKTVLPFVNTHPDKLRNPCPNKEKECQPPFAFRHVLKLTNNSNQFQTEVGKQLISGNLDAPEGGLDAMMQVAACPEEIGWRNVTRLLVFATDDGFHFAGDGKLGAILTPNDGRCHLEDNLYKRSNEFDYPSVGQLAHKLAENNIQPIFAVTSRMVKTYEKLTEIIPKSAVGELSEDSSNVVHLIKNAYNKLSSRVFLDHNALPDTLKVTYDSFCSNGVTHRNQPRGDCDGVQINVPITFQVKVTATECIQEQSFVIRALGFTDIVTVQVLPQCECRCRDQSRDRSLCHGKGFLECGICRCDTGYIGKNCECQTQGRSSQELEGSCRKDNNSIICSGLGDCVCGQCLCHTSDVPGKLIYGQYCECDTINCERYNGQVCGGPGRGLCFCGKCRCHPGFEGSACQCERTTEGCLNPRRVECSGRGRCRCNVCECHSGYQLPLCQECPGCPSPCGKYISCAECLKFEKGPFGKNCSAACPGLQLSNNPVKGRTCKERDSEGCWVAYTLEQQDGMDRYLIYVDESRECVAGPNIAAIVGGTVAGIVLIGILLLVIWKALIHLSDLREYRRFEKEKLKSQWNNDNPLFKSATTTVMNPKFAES

Consider `OCCN1CCN(CCCN2c3ccccc3Sc3ccc(Cl)cc32)CC1` [perphenazine], for which the “LDV concentration required to induce HUTS-21 binding in the presence of the compound” value at VLA-4 [1] came to 0.1 µM. Turning to `CCN(CC)CCNC(=O)c1cc(Cl)c(N)cc1OC` [metoclopramide], the “antagonistic activity in the HUTS-21 based screen” value (“antagonistic activity” below) at VLA-4 [2] is reported as “did not show any antagonistic activity”. With `COc1cccc(OC)c1-c1ccc(C[C@H](NC(=O)c2c(Cl)cccc2Cl)C(=O)O)cc1` [TR14035, N-(2,6-dichlorobenzoyl)-(L)-4-(2′,6′-bis-methoxyphenyl)phenylalanine], the “LIBS (HUTS-21 epitope) exposure” value on VLA-4 [3] was “resulted in the LIBS exposure”. As for `O=C(NCc1cccc(O)c1)c1cc(Cl)c(C(=O)N[C@@H](CNC(=O)c2cc(O)cc(O)c2)C(=O)O)c(Cl)c1` [XVA143], on LFA-1, the “exposure of MEM-148 epitope” value is on record as “induced exposure of MEM-148 epitope”. Regarding `CCN1CCCC1CNC(=O)c1cc(S(N)(=O)=O)ccc1OC` (stereo not drawn) [sulpiride], the “antagonistic activity” value at VLA-4 [2] was “did not show any antagonistic activity”.

`CSc1ccc2c(c1)N(CCC1CCCCN1C)c1ccccc1S2` (stereo not drawn) [Thioridazine, Thioridazine hydrochloride]: in assay [4], the “CFU/ml in peripheral Blood” value worked out at 216.8 ± 42.1 CFU/ml and the “WBC count/ml × 10^6” value was 3.0 ± 0.3 count/ml × 10^6. In turn, `c1cc(CN2CCCNCCNCCCNCC2)ccc1CN1CCCNCCNCCCNCC1` [AMD3100, AMD3100 octahydrochloride] gave a WBC count increase in assay [4] (AMD3100 5 mg/kg intraperitoneal, versus vehicle) of about 2.1 fold. In assay [4], the “CFU/ml in peripheral Blood” value is 511.8 ± 78.8^a CFU/ml and the “WBC count/ml × 10^6” value is on record as 7.8 ± 0.7^b count/ml × 10^6. For “Mouse anti-human CD29, HUTS-21 (PE) (antibody)”, in assay [5], the signal to background ratio was found to be 10. For the compound `O=C(CCCN1CCC(O)(c2ccc(Cl)cc2)CC1)c1ccc(F)cc1` [haloperidol], at VLA-4 [2], the “antagonistic activity” value is recorded as “did not show any antagonistic activity”.
